Columns and labels:
[1] = molecular target: T1, human melanocortin receptor 4 (MC4R) (Homo sapiens, UniProt P32245); test: Luciferase functional assay; format: cell-based; conditions: agonistic efficacy against MCR4; functional assay not specified (luciferase or cAMP)
T1 construct: expressed in transfected cells
Experimental: Cell lines expressing human melanocortin receptor 4 (MC4R) were dissociated from tissue culture dishes by rinsing with Ca^++, Mg^++ free DPBS, treated with 1× Trypsin/EDTA solution for 1 min at 37° C., and resuspended with DMEM (GIBCO-BRL) supplemented with 10% FBS. The cells were counted and diluted with DMEM supplemented with 10% FBS and 200 ug/ml of Geneticin to 5×10^5 cells/ml. 90 ul of cell suspension was plated onto each well of 96-well black and clear bottom culture plates (Costar). After the incubation for 24 h in the atmosphere of 6% CO2 at 37° C., 10 ul of NDP- -MSH and test compounds diluted in DMSO were added to each well. The final DMSO concentration was 1%. After 4 h of incubation in the atmosphere of 6% CO2 at 37° C., 50 ul of Bright-Glo (Promega) was added to each well. Luciferase activity was measured by using L-Max luminometer (Molecular Device). The amount of luciferase activity induced by treatment with NDP- -MSH was defined as 100% to obtain the relative efficacy of test compounds. The EC0.5 MSH was defined as the concentration of test compounds that results in half maximal activity of NDP- -MSH. The EC50 was defined as the concentration of test compound that results in half maximal activity of its own.

[2] = molecular target: T1, human melanocortin receptor 4 (MC4R); test: Membrane fraction binding assay (125I-NDP-MSH competition); conditions: binding affinity against MCR4
Experimental: The membrane fraction binding assay was used to identify competitive inhibitors of ^125I-NDP- -MSH binding to cloned human MCRs expressed in HEK cells.
Cell lines expressing human melanocortin receptor 4 (MC4R) were grown in Φ150 mm culture dishes in DMEM (GIBCO-BRL) supplemented with 10% FBS, 200 ug/ml Geneticin (GIBCO-BRL), and antibiotics (penicillin and streptomycin) (GIBCO-BRL) in an atmosphere of 6% CO2 at 37° C. When the cells were fully grown, the cells were washed once with 10 ml of Ca^++, Mg^++ free DPBS. The cells were incubated with 8 ml of Ca^++, Mg^++ free DPBS for 15-30 min at 37° C. until the cells were easily detached by triturating with pipette. The cells were harvested into 50 ml of conical tubes, and spun at 1500 rpm for 5 min. The supernatant was discarded, and the cells were resuspended in 8 ml of Ca^++, Mg^++ free DPBS, and spun at 1500 rpm for 5 min. The supernatant was discarded, and pellets were resuspended in 3 ml of membrane preparation buffer (50 mM Tris, pH 7.2˜7.4, 4 ug/ml Leupeptin; 10 uM Phosphoramidon; 40 ug/ml Bacitracin; 5 ug/ml Aprotinin; 10 mM Pefabloc). The pellets were homogenized with dounce homogenizer (Bellco with type “B” glass pestle) using 10-12 strokes. The homogenate was centrifuged (Beckman XL-100K Ultracentrifuge, Rotor 45 Ti, 50 ml centrifuge tube) at 40,000 rpm (100,000×g) for 30 min at 4° C. The pellets were resuspended in 20 ml of membrane preparation buffer, and protein was determined by BCA assay kit (PIERCE). Aliquots were placed in tubes and stored at −80° C.
Membrane fraction was diluted with membrane binding buffer to make final 600 ug/ml, and 50 ul of membrane fraction containing 30 ug of membrane protein was added onto each well of 96-well assay plate. 25 ul of test compounds or 20 uM unlabelled NDP- -MSH (to make the final concentration at 5 uM) diluted with membrane binding buffer was added onto each well of 96-well assay plate. […] The top was sealed, and the radioactivity was quantitated in a Packard Topcount Microplate Scintillation Counter. […]

T1 sequence (P32245 whole entry): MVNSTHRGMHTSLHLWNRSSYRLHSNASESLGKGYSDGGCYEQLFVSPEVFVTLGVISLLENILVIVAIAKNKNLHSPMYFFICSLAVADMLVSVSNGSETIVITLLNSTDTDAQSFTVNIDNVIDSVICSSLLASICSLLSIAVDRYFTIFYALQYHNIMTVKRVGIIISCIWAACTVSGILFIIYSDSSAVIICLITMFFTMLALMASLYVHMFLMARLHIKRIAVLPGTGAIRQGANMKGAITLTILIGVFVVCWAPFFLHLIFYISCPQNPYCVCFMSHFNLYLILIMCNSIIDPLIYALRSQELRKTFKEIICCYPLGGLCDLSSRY

| Compound | EC50 [1] [µM] | IC50 [2] [µM] |
| --- | --- | --- |
| CC(C)C(=O)N(C1CCCCC1)[C@H]1CCN(NC(=O)[C@@H](Cc2ccc(Cl)cc2)NC[C@H]2CCCN2)C1 [Example 3, (2R)-2-{[(2R)-pyrrolidine-2-yl]methyl}amino-N-{(3S)-3-[cyclohexyl(isobutyryl)amino]pyrrolidine-1-yl}-3-(4-chlorophenyl)propionamide 2TFA] | 0.005 to 0.5 | 0.1 to 0.5 |
| CC(C)C(=O)N(C1CCCCC1)[C@H]1CCN(C(=O)[C@H](N)Cc2ccc(Cl)cc2)C1 [Example 1] | 0.005 to 0.5 | 0.1 to 0.5 |
| CC(C)C(=O)N(C1CCCCC1)[C@H]1CCN(C(=O)[C@@H](Cc2ccc(Cl)cc2)NC(=O)[C@H]2CCCN2)C1 [Example 2] | 0.005 to 0.5 | 0.1 to 0.5 |

From patent publication US7989634B2, “Melanocortin receptor agonists” (LG Life Sciences Ltd., priority 2003, dated 2011)
